Test results from PubChem BioAssay (NCI).
“And” between values parts separate entries of the source, which are not always exact repeats. Equal values may be shown once.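 Grown in 96-well plates, cells were treated for 48 hours with each compound at five concentrations. Insufficient inhibition: endpoint recorded as highest concentration tested. The concentration for 50% growth inhibition is given as GI50. TGI is the concentration that stops growth completely.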 The source made the active and inactive calls. Rule as the data show it: active = GI50 below about 0.43 µM; inactive = the rest. Where a SMILES comes first, the peptide text is derived from it. Side-chain parts run from the residue outwards. The star is where a group is joined. Cbz = O=C(OCc1ccccc1)*; Boc = CC(C)(C)OC(=O)*

Tests used:
Assay in all cases: growth of human tumour cells (NCI), 48 h
LOX IMVI melanoma = tested on: LOX IMVI melanoma
MDA-MB-435 = tested on: MDA-MB-435
TK-10 renal = tested on: TK-10 renal
RPMI-8226 leukemia = tested on: RPMI-8226 leukemia
MDA-MB-231 breast = tested on: MDA-MB-231 breast
NCI-H23 lung = tested on: NCI-H23 lung
DU-145 prostate = tested on: DU-145 prostate
SNB-75 CNS = tested on: SNB-75 CNS
RXF 393 renal = tested on: RXF 393 renal

Structure (SMILES): CC(C)(C)OC(=O)n1c(Cl)c(C=O)c2ccccc21
- TGI (LOX IMVI melanoma): 68.1 µM
- TGI (MDA-MB-435): > 100 µM
- TGI (TK-10 renal): 53.4 µM
- TGI (RPMI-8226 leukemia): 44.3 µM
- TGI (MDA-MB-231 breast): 84.5 µM
- TGI (NCI-H23 lung): 47 µM
- TGI (DU-145 prostate): 39.6 µM
- TGI (SNB-75 CNS): > 100 µM

Structure (SMILES): Cn1c(COC(=O)NC2CCCCC2)c(COC(=O)NC2CCCCC2)c2ccc3cc(C=O)ccc3c21
- TGI (LOX IMVI melanoma): > 100 µM
- TGI (MDA-MB-435): > 100 µM
- TGI (TK-10 renal): > 100 µM
- TGI (MDA-MB-231 breast): > 100 µM
- TGI (NCI-H23 lung): > 100 µM
- TGI (DU-145 prostate): > 100 µM
- TGI (RXF 393 renal): > 100 µM
- TGI (SNB-75 CNS): 60.8 µM

Structure (SMILES): COc1ccc(C2=C(Cl)c3cc(OC)c(OC)cc3C2)cc1OC
- TGI (RPMI-8226 leukemia): > 100 µM
- TGI (NCI-H23 lung): > 100 µM
- TGI (RXF 393 renal): 73.7 µM
- TGI (SNB-75 CNS): > 100 µM

Structure (SMILES): O=S1(=O)OCCCOS(=O)(=O)C1(Br)Br
- TGI (LOX IMVI melanoma): > 100 µM
- TGI (MDA-MB-435): > 100 µM
- TGI (TK-10 renal): > 100 µM
- TGI (RPMI-8226 leukemia): > 100 µM
- TGI (NCI-H23 lung): > 100 µM
- TGI (DU-145 prostate): > 100 µM
- TGI (RXF 393 renal): > 100 µM
- TGI (SNB-75 CNS): > 100 µM

Structure (SMILES): O=C(CC(c1ccccc1)C(C(=O)c1ccncc1)C(CC(=O)c1ccncc1)c1ccccc1)c1ccncc1 (centres undefined)
- TGI (LOX IMVI melanoma): > 100 µM
- TGI (MDA-MB-435): > 100 µM
- TGI (TK-10 renal): > 100 µM
- TGI (RPMI-8226 leukemia): > 100 µM
- TGI (MDA-MB-231 breast): > 100 µM
- TGI (NCI-H23 lung): > 100 µM
- TGI (DU-145 prostate): > 100 µM
- TGI (SNB-75 CNS): > 100 µM

Structure (SMILES): COc1ccc(CCCN2c3ccccc3Sc3ccccc32)cc1
- TGI (LOX IMVI melanoma): > 100 µM
- TGI (TK-10 renal): > 100 µM
- TGI (RPMI-8226 leukemia): > 100 µM
- TGI (NCI-H23 lung): > 100 µM
- TGI (RXF 393 renal): > 100 µM
- TGI (SNB-75 CNS): > 100 µM

Structure (SMILES): O=C(NN1C(=O)C(Cl)C1c1ccccc1Cl)c1ccccc1O (centres undefined)
- TGI (LOX IMVI melanoma): > 100 µM
- TGI (TK-10 renal): > 100 µM
- TGI (RXF 393 renal): 88.2 µM
- TGI (SNB-75 CNS): > 100 µM

Structure (SMILES): Cc1c2oc3c(C)cc(F)c(C(=O)NC4C(=O)NC(C(C)C)C(=O)N5CCCC5C(=O)N(C)CC(=O)N(C)C(C(C)C)C(=O)OC4C)c3nc-2c(C(=O)NC2C(=O)NC(C(C)C)C(=O)N3CCCC3C(=O)N(C)CC(=O)N(C)C(C(C)C)C(=O)OC2C)c(N)c1=O (centres undefined)
- TGI (LOX IMVI melanoma): 0.159 µM
- TGI (MDA-MB-435): 1.42 µM and 1.19 µM
- GI50 (TK-10 renal): 1.07 µM
- GI50 (MDA-MB-231 breast): 0.0186 µM
- TGI (MDA-MB-231 breast): 6.8 µM and 2.45 µM
- TGI (NCI-H23 lung): 0.897 µM and 6.26 µM
- TGI (RXF 393 renal): 0.391 µM
- GI50 (SNB-75 CNS): 0.121 µM
- TGI (SNB-75 CNS): 1.9 µM and 1.75 µM

Structure (SMILES): CCN(CC)c1ccc2cc(C(N)=O)c(=Nc3ccc(F)cc3)oc2c1
- TGI (LOX IMVI melanoma): > 100 µM
- TGI (MDA-MB-435): > 100 µM
- TGI (TK-10 renal): 44.7 µM
- TGI (RPMI-8226 leukemia): > 100 µM
- TGI (MDA-MB-231 breast): 88.5 µM
- TGI (NCI-H23 lung): > 100 µM
- TGI (RXF 393 renal): 92 µM
- TGI (SNB-75 CNS): 47 µM

Structure (SMILES): COc1cccc([C@@H]2CC(=O)c3cc4c(cc3N2)OCO4)c1
- TGI (LOX IMVI melanoma): > 100 µM
- TGI (MDA-MB-435): > 100 µM
- TGI (TK-10 renal): > 100 µM
- TGI (RPMI-8226 leukemia): > 100 µM
- TGI (MDA-MB-231 breast): > 100 µM
- TGI (DU-145 prostate): > 100 µM
- TGI (RXF 393 renal): > 100 µM
- TGI (SNB-75 CNS): > 100 µM

Structure (SMILES): O=C1c2cccnc2-c2nccc3c2c1nc1ccc(Br)cc13
- TGI (LOX IMVI melanoma): 0.0806 µM
- TGI (MDA-MB-435): 0.257 µM
- TGI (TK-10 renal): 0.749 µM
- TGI (MDA-MB-231 breast): 0.211 µM
- TGI (NCI-H23 lung): 0.12 µM
- TGI (DU-145 prostate): 0.0577 µM
- TGI (RXF 393 renal): 0.0691 µM
- TGI (SNB-75 CNS): 0.595 µM

Structure (SMILES): CO[C@]12CC(=O)C3(C(C[C@H]4CC5CC[C@H]6C[C@@H](OC(C)=O)CC[C@]6(OC(C)=O)C5C[C@@]43C)C1)C1C[C@H]3[C@@H]4CC[C@H]5C[C@@H](OC(C)=O)CC[C@]5(OC(C)=O)[C@H]4CC[C@]3(C)C12 (some centres undefined)
- TGI (LOX IMVI melanoma): > 100 µM
- TGI (MDA-MB-435): > 100 µM
- TGI (TK-10 renal): > 100 µM
- TGI (RPMI-8226 leukemia): > 100 µM
- TGI (MDA-MB-231 breast): > 100 µM
- TGI (NCI-H23 lung): > 100 µM
- TGI (DU-145 prostate): > 100 µM
- TGI (SNB-75 CNS): > 100 µM

Structure (SMILES): CC(C)(C)OC(=O)NC(CCCCNC(=O)CNC(=O)OCc1ccccc1)C(=O)NC(CCCCNC(=O)CNC(=O)OCc1ccccc1)C(=O)NC(CCCCNC(=O)CNC(=O)OCc1ccccc1)C(=O)NC(CCCCNC(=O)CNC(=O)OCc1ccccc1)C(=O)O (centres undefined) (Boc-K([Gly-Cbz])K([Gly-Cbz])K([Gly-Cbz])K([Gly-Cbz])-OH; configuration not given here)
- TGI (LOX IMVI melanoma): > 100 µM
- TGI (TK-10 renal): > 100 µM
- TGI (RPMI-8226 leukemia): > 100 µM
- TGI (MDA-MB-231 breast): > 100 µM
- TGI (NCI-H23 lung): > 100 µM
- TGI (DU-145 prostate): > 100 µM
- TGI (SNB-75 CNS): > 100 µM

Structure (SMILES): NCCS(=O)(=O)O
- TGI (LOX IMVI melanoma): > 100 µM
- TGI (MDA-MB-435): > 100 µM
- TGI (TK-10 renal): > 100 µM
- TGI (RPMI-8226 leukemia): > 100 µM
- TGI (MDA-MB-231 breast): > 100 µM
- TGI (NCI-H23 lung): > 100 µM
- TGI (DU-145 prostate): > 100 µM
- TGI (SNB-75 CNS): > 100 µM

Structure (SMILES): N#Cc1c(N2CCCC2)nsc1Nc1ccc(F)cc1
- TGI (LOX IMVI melanoma): > 100 µM
- TGI (MDA-MB-435): > 100 µM
- TGI (TK-10 renal): > 100 µM
- TGI (RPMI-8226 leukemia): > 100 µM
- TGI (MDA-MB-231 breast): > 100 µM
- TGI (NCI-H23 lung): > 100 µM
- TGI (DU-145 prostate): > 100 µM
- TGI (RXF 393 renal): > 100 µM

Structure (SMILES): O=P(O)(O)CN1CCNCCN(CP(=O)(O)O)CCN(CP(=O)(O)O)CCNCC1
- outcome (MDA-MB-435): inactive
- outcome (TK-10 renal): inactive
- outcome (MDA-MB-231 breast): inactive
- outcome (NCI-H23 lung): inactive
- outcome (DU-145 prostate): inactive
- outcome (RXF 393 renal): inactive
- outcome (SNB-75 CNS): inactive

Structure (SMILES): C1=CN2C[n+]3ccc4ccccc4c3N=C2c2ccccc21
- TGI (MDA-MB-435): 7.24 µM
- TGI (TK-10 renal): 43 µM
- TGI (RPMI-8226 leukemia): 11.8 µM
- TGI (MDA-MB-231 breast): 23.6 µM
- TGI (NCI-H23 lung): 21.4 µM
- TGI (DU-145 prostate): 25.2 µM

Structure (SMILES): O=c1[nH]c(=O)n(COCc2ccccc2)c2ccccc12
- TGI (LOX IMVI melanoma): > 100 µM
- TGI (MDA-MB-435): > 100 µM
- TGI (TK-10 renal): > 100 µM
- TGI (MDA-MB-231 breast): > 100 µM
- TGI (DU-145 prostate): > 100 µM
- TGI (RXF 393 renal): 94.5 µM
- TGI (SNB-75 CNS): 54.9 µM

Structure (SMILES): CCC(=O)N1C(=O)C(CC)(CC)C(=O)N1C(=O)CC
- TGI (MDA-MB-435): > 100 µM
- TGI (TK-10 renal): > 100 µM
- TGI (RPMI-8226 leukemia): > 100 µM
- TGI (MDA-MB-231 breast): > 100 µM
- TGI (NCI-H23 lung): > 100 µM
- TGI (DU-145 prostate): > 100 µM
- TGI (RXF 393 renal): > 100 µM
- TGI (SNB-75 CNS): > 100 µM

Structure (SMILES): O=C1CCC2(c3ccc(Cl)cc3)Nc3ncncc3N12 (centres undefined)
- TGI (LOX IMVI melanoma): > 10 µM
- TGI (MDA-MB-435): > 10 µM
- TGI (TK-10 renal): > 10 µM
- TGI (NCI-H23 lung): > 10 µM
- TGI (DU-145 prostate): > 10 µM
- TGI (SNB-75 CNS): > 10 µM

Structure (SMILES): COc1ccc(C2=NNC(c3cc4cc(Br)ccc4nc3Cl)C2)cc1 (centres undefined)
- TGI (MDA-MB-435): > 25 µM
- TGI (RPMI-8226 leukemia): > 25 µM
- TGI (NCI-H23 lung): > 25 µM
- TGI (DU-145 prostate): > 25 µM
- TGI (SNB-75 CNS): > 25 µM

Structure (SMILES): O=C(NNS(=O)(=O)c1ccccc1)c1csc(NC(=S)NC2CCCCC2)n1
- TGI (LOX IMVI melanoma): 33.9 µM
- TGI (MDA-MB-435): 43.3 µM
- TGI (TK-10 renal): > 100 µM
- TGI (RPMI-8226 leukemia): > 100 µM
- TGI (MDA-MB-231 breast): 52.6 µM
- TGI (NCI-H23 lung): > 100 µM
- TGI (DU-145 prostate): 81.5 µM
- TGI (SNB-75 CNS): > 100 µM

Structure (SMILES): COc1cc(S(=O)(=O)Nc2ccc(-c3csc(N4C(=O)C(C)SC4c4ccccc4)n3)cc2)ccc1Cl (centres undefined)
- TGI (LOX IMVI melanoma): > 100 µM
- TGI (MDA-MB-435): > 100 µM
- TGI (RPMI-8226 leukemia): > 100 µM
- TGI (NCI-H23 lung): > 100 µM
- TGI (DU-145 prostate): > 100 µM
- TGI (RXF 393 renal): 47.4 µM
- TGI (SNB-75 CNS): 32.7 µM
